Test results reported in patent US20250059188A1, “ARYLSULPHONAMIDE COMPOUNDS” (Anaxis Pharma Pty Ltd, priority 2021, published 2025).

What was measured:
human MLKL (full length) = human MLKL (full length) (Homo sapiens (Human), UniProt Q8NB16); assay: KINOMEscan binding assay, human MLKL (full length); conditions: equilibrium dissociation constant
How it was run: (§1)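 Tagged kinase + immobilized ligand beads + compound; eluted kinase quantified by qPCR. Kinase source: T7 phage lysate (BL21-derived E. coli, 32 °C) or HEK-293 with DNA tag. 11-pt 3-fold series, 1% DMSO, top 30,000 nM (most). Hill fit, slope −1 → Kd.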

human RIPK1 = human RIPK1 (Homo sapiens (Human), UniProt Q13546); assay: KINOMEscan binding assay, human RIPK1; conditions: equilibrium dissociation constant
How it was run: as §1

human RIPK3 = human RIPK3 (Homo sapiens (Human), UniProt Q9Y572); assay: KINOMEscan binding assay, human RIPK3; conditions: equilibrium dissociation constant
How it was run: as §1

[1] = system: Immortalised Mouse Dermal Fibroblasts (MDFs); assay: Inhibition of TSI induced necroptosis in mouse dermal fibroblasts (CellTitre-Glo); conditions: Mus musculus, Fibroblast, 3 h, MDF cells, TSI cocktail (TNF, Smac mimetic, IDN-6556), read-out: Inhibition of TSI-induced necroptosis (IC50 cell-based assay) in MDF
How it was run: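 Immortalised MDFs (2200 cells/well, DMEM + 7.4% FBS) pretreated 30 min with compound (36 μM top, 1:3, 10 points, 0.3% DMSO), then 3 h with TNF 100 ng/ml, Smac mimetic 500 nM and IDN-6556 10 μM at 37 °C. Viability by CellTiter-Glo luminescence; IC50 from 4-parameter logistic fit.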

human RIPK3, sequence (Q9Y572 whole entry): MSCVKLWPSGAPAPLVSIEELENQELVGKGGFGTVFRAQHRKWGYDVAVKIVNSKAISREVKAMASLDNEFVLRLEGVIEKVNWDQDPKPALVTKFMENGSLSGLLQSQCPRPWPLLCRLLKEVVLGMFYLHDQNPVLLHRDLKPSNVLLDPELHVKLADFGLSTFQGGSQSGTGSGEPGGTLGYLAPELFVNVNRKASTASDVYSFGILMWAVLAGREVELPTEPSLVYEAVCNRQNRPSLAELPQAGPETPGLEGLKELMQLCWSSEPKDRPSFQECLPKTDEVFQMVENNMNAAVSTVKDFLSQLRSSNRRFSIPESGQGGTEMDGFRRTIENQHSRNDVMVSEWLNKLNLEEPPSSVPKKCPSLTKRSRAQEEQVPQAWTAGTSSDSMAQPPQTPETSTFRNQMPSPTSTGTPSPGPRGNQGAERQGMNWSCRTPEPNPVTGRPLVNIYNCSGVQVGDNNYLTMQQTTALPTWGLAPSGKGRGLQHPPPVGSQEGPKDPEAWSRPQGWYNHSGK
human MLKL (full length), sequence (Q8NB16 whole entry): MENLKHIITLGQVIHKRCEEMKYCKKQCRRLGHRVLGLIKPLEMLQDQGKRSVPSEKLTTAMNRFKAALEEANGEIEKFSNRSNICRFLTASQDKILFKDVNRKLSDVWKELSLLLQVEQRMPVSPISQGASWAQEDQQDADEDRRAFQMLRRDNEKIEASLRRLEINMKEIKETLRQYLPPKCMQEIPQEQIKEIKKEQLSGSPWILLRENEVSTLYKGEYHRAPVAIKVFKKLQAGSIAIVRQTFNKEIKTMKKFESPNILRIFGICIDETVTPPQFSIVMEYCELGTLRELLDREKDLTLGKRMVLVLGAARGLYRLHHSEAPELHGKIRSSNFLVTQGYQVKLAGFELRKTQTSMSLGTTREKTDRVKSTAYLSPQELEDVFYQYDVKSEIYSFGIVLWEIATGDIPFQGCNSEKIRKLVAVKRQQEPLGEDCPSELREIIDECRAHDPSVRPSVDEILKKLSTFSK
human RIPK1, sequence (Q13546 whole entry): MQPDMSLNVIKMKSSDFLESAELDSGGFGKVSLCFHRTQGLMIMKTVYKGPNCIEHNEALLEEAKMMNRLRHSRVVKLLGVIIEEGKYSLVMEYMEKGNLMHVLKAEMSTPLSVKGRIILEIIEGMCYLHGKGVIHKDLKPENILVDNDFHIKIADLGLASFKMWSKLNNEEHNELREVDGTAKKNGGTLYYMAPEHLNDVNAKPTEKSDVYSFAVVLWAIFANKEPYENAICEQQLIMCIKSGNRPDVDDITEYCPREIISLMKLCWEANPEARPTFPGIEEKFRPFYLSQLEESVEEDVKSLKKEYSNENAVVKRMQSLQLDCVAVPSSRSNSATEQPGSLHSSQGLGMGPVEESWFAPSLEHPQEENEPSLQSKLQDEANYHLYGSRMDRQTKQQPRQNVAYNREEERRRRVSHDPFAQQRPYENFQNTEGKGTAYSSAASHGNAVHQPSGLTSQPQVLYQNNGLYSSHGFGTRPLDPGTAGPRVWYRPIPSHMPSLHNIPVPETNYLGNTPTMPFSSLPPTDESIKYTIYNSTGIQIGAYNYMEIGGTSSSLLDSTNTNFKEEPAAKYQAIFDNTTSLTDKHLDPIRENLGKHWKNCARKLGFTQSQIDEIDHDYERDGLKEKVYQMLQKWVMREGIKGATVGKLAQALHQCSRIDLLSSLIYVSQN

Kd (human MLKL (full length)) [µM] | Kd (human RIPK1) [µM] | Kd (human RIPK3) [µM] | SMILES | IC50 [1] [µM]
< 0.001 | > 10 | > 10 | C[C@H](Oc1cc(-c2nn(C)c3c(C#CC4CCNCC4)cnc(N)c23)ccc1NS(=O)(=O)C(F)F)c1ccc(F)cc1 [Compound 79, (S)—N-(4-(4-amino-1-methyl-7-(piperidin-4-ylethynyl)-1H-pyrazolo[4,3-c]pyridin-3-yl)-2-(1-(4-fluorophenyl)ethoxy)phenyl)-1,1-difluoromethanesulfonamide] | 1 to 10
< 0.001 | > 10 | > 10 | C[C@H](Oc1cc(-c2nn(C)c3c(C#CC4CCN(C)CC4)cnc(N)c23)ccc1NS(=O)(=O)C(F)F)c1ccc(F)cc1 [Compound 80, (S)—N-(4-(4-amino-1-methyl-7-((1-methylpiperidin-4-yl)ethynyl)-1H-pyrazolo[4,3-c]pyridin-3-yl)-2-(1-(4-fluorophenyl)ethoxy)phenyl)-1,1-difluoromethanesulfonamide] | 0.1 to 1
< 0.001 | > 10 | > 10 | CC(C)N(C)C(=O)C(C)n1cc(-c2cnc(N)c3c(-c4ccc(NS(=O)(=O)C(F)F)c(O[C@@H](C)c5ccc(F)cc5)c4)nn(C)c23)cn1 (stereo partly drawn) [Compound 81, 2-(4-(4-amino-3-(4-((difluoromethyl)sulfonamido)-3-((S)-1-(4-fluorophenyl)ethoxy)phenyl)-1-methyl-1H-pyrazolo[4,3-c]pyridin-7-yl)-1H-pyrazol-1-yl)-N-isopropyl-N-methylpropanamide] | 1 to 10
< 0.001 | > 10 | > 10 | C[C@H](Oc1cc(-c2nn(C)c3c(-c4cnn(C(C)(C)CO)c4)cnc(N)c23)ccc1NS(=O)(=O)C(F)F)c1ccc(F)cc1 [Compound 97, (S)-N-(4-(4-amino-7-(1-(1-hydroxy-2-methylpropan-2-yl)-1H-pyrazol-4-yl)-1-methyl-1H-pyrazolo[4,3-c]pyridin-3-yl)-2-(1-(4-fluorophenyl)ethoxy)phenyl)-1,1-difluoromethanesulfonamide] | 1 to 10
< 0.001 | > 10 | > 10 | C[C@H](Oc1cc(-c2nn(C)c3c(-c4cnn(C5(CC#N)COC5)c4)cnc(N)c23)ccc1NS(=O)(=O)C(F)F)c1ccc(F)cc1 [Compound 98, (S)-N-(4-(4-amino-7-(1-(3-(cyanomethyl)oxetan-3-yl)-1H-pyrazol-4-yl)-1-methyl-1H-pyrazolo[4,3-c]pyridin-3-yl)-2-(1-(4-fluorophenyl)ethoxy)phenyl)-1,1-difluoromethanesulfonamide] | 1 to 10
< 0.001 | > 10 | > 10 | C[C@H](Oc1cc(-c2nn(C)c3c(-c4cnn(C5CC6(C5)CN(C)C6)c4)cnc(N)c23)ccc1NS(=O)(=O)C(F)F)c1ccc(F)cc1 [Compound 99, (S)-N-(4-(4-amino-1-methyl-7-(1-(2-methyl-2-azaspiro[3.3]heptan-6-yl)-1H-pyrazol-4-yl)-1H-pyrazolo[4,3-c]pyridin-3-yl)-2-(1-(4-fluorophenyl)ethoxy)phenyl)-1,1-difluoromethanesulfonamide] | 1 to 10
< 0.001 | > 10 | > 10 | [2H]C([2H])([2H])N1CCC(n2cc(-c3cnc(N)c4c(-c5ccc(NS(=O)(=O)C(F)F)c(O[C@@H](C)c6ccc(F)cc6)c5)nn(C)c34)cn2)CC1 [Compound 103] | 1 to 10
< 0.001 | > 10 | > 10 | C[C@H](Oc1cc(-c2nn(C)c3c(-c4cnn(C5CCC(C)(C)N(C)C5)c4)cnc(N)c23)ccc1NS(=O)(=O)C(F)F)c1ccc(F)cc1 (stereo partly drawn) [Compound 104, N-(4-{4-amino-1-methyl-7-[1-(1,6,6-trimethylpiperidin-3-yl)-1H-pyrazol-4-yl]-1H-pyrazolo[4,3-c]pyridin-3-yl}-2-[(1 S)-1-(4-fluorophenyl)ethoxy]phenyl)-1,1-difluoromethanesulfonamide] | 0.1 to 1
< 0.001 | > 10 | > 10 | CC(=O)N1CCC(n2cc(-c3cnc(N)c4c(-c5ccc(NS(=O)(=O)C(F)F)c(O[C@@H](C)c6ccc(F)cc6)c5)nn(C)c34)cn2)CC1 [Compound 109, (S)—N-(4-(7-(1-(1-acetylpiperidin-4-yl)-1H-pyrazol-4-yl)-4-amino-1-methyl-1H-pyrazolo[4,3-c]pyridin-3-yl)-2-(1-(4-fluorophenyl)ethoxy)phenyl)-1,1-difluoromethanesulfonamide] | 0.1 to 1
0.001 to 0.1 | > 10 | > 10 | C[C@H](Oc1cc(-c2nn(C)c3c(-c4cnn(CC(F)(F)F)c4)cnc(N)c23)ccc1NS(=O)(=O)C(F)F)c1ccc(F)cc1 [Compound 116, (S)-N-(4-(4-amino-1-methyl-7-(1-(2,2,2-trifluoroethyl)-1H-pyrazol-4-yl)-1H-pyrazolo[4,3-c]pyridin-3-yl)-2-(1-(4-fluorophenyl)ethoxy)phenyl)-1,1-difluoromethanesulfonamide] | 1 to 10
0.001 to 0.1 | > 10 | > 10 | C[C@H](Oc1cc(-c2nn(C)c3c(-c4cnn(C5CCC(F)(F)C5)c4)cnc(N)c23)ccc1NS(=O)(=O)C(F)F)c1ccc(F)cc1 (stereo partly drawn) [Compound 120, N-(4-{4-amino-7-[1-(3,3-difluorocyclopentyl)-1H-pyrazol-4-yl]-1-methyl-1H-pyrazolo[4,3-c]pyridin-3-yl}-2-[(1S)-1-(4-fluorophenyl)ethoxy]phenyl)-1,1-difluoromethanesulfonamide] | 1 to 10
< 0.001 | > 10 | > 10 | C[C@@H](Oc1cc(-c2nn(C)c3c(-c4cnn(C5CCOCC5)c4)cnc(N)c23)ccc1NS(=O)(=O)C(F)F)c1ccc(F)cc1 [Compound 121, (R)-N-(4-(4-amino-1-methyl-7-(1-(tetrahydro-2H-pyran-4-yl)-1H-pyrazol-4-yl)-1H-pyrazolo[4,3-c]pyridin-3-yl)-2-(1-(4-fluorophenyl)ethoxy)phenyl)-1,1-difluoromethanesulfonamide] | 1 to 10
< 0.001 | > 10 | > 10 | C[C@H](Oc1cc(-c2nn(C)c3c(-c4cnn(C5CCOCC5)c4)cnc(N)c23)ccc1NS(=O)(=O)C(F)F)c1cccc(Cl)c1 [Compound 122, (S)-N-(4-(4-amino-1-methyl-7-(1-(tetrahydro-2H-pyran-4-yl)-1H-pyrazol-4-yl)-1H-pyrazolo[4,3-c]pyridin-3-yl)-2-(1-(3-chlorophenyl)ethoxy)phenyl)-1,1-difluoromethanesulfonamide] | 1 to 10
0.001 to 0.1 | > 10 | > 10 | C[C@H](Oc1cc(-c2nn(C)c3c(-c4cnn(CCC(F)(F)F)c4)cnc(N)c23)ccc1NS(=O)(=O)C(F)F)c1ccc(F)cc1 [Compound 131, (S)-N-(4-(4-amino-1-methyl-7-(1-(3,3,3-trifluoropropyl)-1H-pyrazol-4-yl)-1H-pyrazolo[4,3-c]pyridin-3-yl)-2-(1-(4-fluorophenyl)ethoxy)phenyl)-1,1-difluoromethanesulfonamide] | 1 to 10
< 0.001 | > 10 | > 10 | Cn1nc(-c2ccc(NS(=O)(=O)C(F)F)c(OCc3ccc(Cl)c(F)c3)c2)c2c(N)ncc(-c3cnn(C4CCOCC4)c3)c21 [Compound 132, N-(4-(4-amino-1-methyl-7-(1-(tetrahydro-2H-pyran-4-yl)-1H-pyrazol-4-yl)-1H-pyrazolo[4,3-c]pyridin-3-yl)-2-((4-chloro-3-fluorobenzyl)oxy)phenyl)-1,1-difluoromethanesulfonamide] | 1 to 10
0.001 to 0.1 | > 10 | > 10 | COCC(Oc1cc(-c2nn(C)c3c(-c4cnn(C5CCN(C)CC5)c4)cnc(N)c23)ccc1NS(=O)(=O)C(F)F)c1ccc(F)cc1 (stereo not drawn) [Compound 139, N-(4-(4-amino-1-methyl-7-(1-(1-methylpiperidin-4-yl)-1H-pyrazol-4-yl)-1H-pyrazolo[4,3-c]pyridin-3-yl)-2-(1-(4-fluorophenyl)-2-methoxyethoxy)phenyl)-1,1-difluoromethanesulfonamide] | 1 to 10
< 0.001 | > 10 | > 10 | CC(n1cc(-c2cnc(N)c3c(-c4ccc(NS(=O)(=O)C(F)F)c(O[C@@H](C)c5ccc(F)cc5)c4)nn(C)c23)cn1)C(F)(F)F (stereo partly drawn) [Compound 142, N-(4-(4-amino-1-methyl-7-(1-(1,1,1-trifluoropropan-2-yl)-1H-pyrazol-4-yl)-1H-pyrazolo[4,3-c]pyridin-3-yl)-2-((S)-1-(4-fluorophenyl)ethoxy)phenyl)-1,1-difluoromethanesulfonamide] | 1 to 10
0.001 to 0.1 | > 10 | > 10 | C[C@H](Oc1cc(-c2nn(C)c3c(-c4cnn(C5CCN(C)C6(CC6)C5)c4)cnc(N)c23)ccc1NS(=O)(=O)C(F)F)c1ccc(F)cc1 (stereo partly drawn) [Compound 145, N-(4-(4-amino-1-methyl-7-(1-(4-methyl-4-azaspiro[2.5]octan-7-yl)-1H-pyrazol-4-yl)-1H-pyrazolo[4,3-c]pyridin-3-yl)-2-((S)-1-(4-fluorophenyl)ethoxy)phenyl)-1,1-difluoromethanesulfonamide] | < 0.1
